The structures appear in SMILES notation.

The values that follow come from ChEMBL document CHEMBL3507680, “University of Dundee, Gates Library screen for HepG2 cell viability”.

This series is described as follows: Human HepG2 cell viability assay in 384 well format. Type of series: toxicity, cell-based. Details: dose 125 nL, time 70.5 hour; concentration not given beside the values. Conditions: HepG2 cells, read-out: Inhibition.
On to `COc1cccc2c1OCC(CNc1ccc(C)nn1)C2` (stereo not given), for which the cytotoxicity at 70.5 h is -3.11%.

Consider `O=C(Nc1nc(-c2ccccc2)ns1)N1CC[C@H](O)C1`, for which the cytotoxicity at 70.5 h was -9.25%.

As to `CCN(Cc1ccc2c(c1)OCO2)C(=O)NC(C)Cn1ccnc1` (stereo not given), the cytotoxicity at 70.5 h was 1.66%.

Consider `O=C1C(NCc2cccc(O)c2)CCN1Cc1ccccc1` (stereo not given), for which the cytotoxicity at 70.5 h is -0.773%.

Take `O=C(Cc1ccccn1)NCC1OCCc2cn(CC3CC3)nc21` (stereo not given): the cytotoxicity at 70.5 h was determined as 11.2%.

With `CN(CCNc1cc(N2CCCC2CO)ncn1)Cc1ccccc1` (stereo not given), the cytotoxicity at 70.5 h is -3.62%.

Take `COCCn1ccnc1C1CCCN(c2ncnc3c2CCC3)C1` (stereo not given): the cytotoxicity at 70.5 h was -0.0473%.

As for `CCN1C(=O)CC[C@@H]2[C@H]1CCN2C(=O)Cc1cccc(OC)c1`, the cytotoxicity at 70.5 h stood at 0.943%.

For the compound `COCc1nn(C(C)C)c2c1CCN(Cc1cccs1)C2`, the cytotoxicity at 70.5 h is -6.03%.

`Cc1ccc(C(=O)O)cc1CNC(=O)CN1CC[C@](C)(O)C(C)(C)C1`: the cytotoxicity at 70.5 h was -6.88%.

Consider `COCCCN1CC2(CCN(C(=O)Cc3csc(C)n3)CC2)CC1=O`, for which the cytotoxicity at 70.5 h was -7.77%.

For `COCCCC1(CO)CCCN(Cc2ccc(F)c(OC)c2)C1` (stereo not given), the cytotoxicity at 70.5 h came out at 9.96%.

For `CN(CC(=O)N1CCCC1Cn1cccn1)C1CC1` (stereo not given), the cytotoxicity at 70.5 h is -14.3%.

`N#CCCN(Cc1ccco1)C(=O)C1CCCc2ccccc21` (stereo not given): the cytotoxicity at 70.5 h is -6.61%.

Consider `CC(=O)N1CCCC(Cc2nccn2C)C1` (stereo not given), for which the cytotoxicity at 70.5 h is -5.45%.

Take `O=C([C@@H]1COC[C@H]2CN(C3CCOCC3)C[C@H]21)N1CCOCC1`: the cytotoxicity at 70.5 h was -1.42%.

Turning to `c1cnc(N2CCOCC3(CCN(c4cnccn4)CC3)C2)nc1`, the cytotoxicity at 70.5 h is -8.75%.

With `COc1cc(CN2CCCCCC2c2cccs2)cc(OC)c1O` (stereo not given), the cytotoxicity at 70.5 h is -2.15%.

As to `CC(C)N(C)CCCNC(=O)c1cnn(C(C)C)c1C(F)(F)F`, the cytotoxicity at 70.5 h amounted to 13.9%.

In the case of `CN(Cc1noc(C2CC2)n1)C1CCN(Cc2ccncc2)C1` (stereo not given), the cytotoxicity at 70.5 h was -9.86%.

As to `Nc1cccnc1N1CCC(c2ccccc2)CC1`, the cytotoxicity at 70.5 h came to 25%.

In the case of `CC(Cc1cccc(F)c1)NCc1cnc(N2CCN(C)CC2)nc1` (stereo not given), the cytotoxicity at 70.5 h was 9.92%.

On to `CNc1ncc(C(=O)N2CCC3(CC2)Nc2ccccc2NC3=O)cn1`, for which the cytotoxicity at 70.5 h was -0.695%.

As to `CC(C(=O)Nc1ncccn1)N1CCC(n2ccnc2)CC1` (stereo not given), the cytotoxicity at 70.5 h was -4.52%.

Regarding `CCc1c(C)sc(NC(=O)CN2CCN(CC)CC2)c1C(=O)OC`, the cytotoxicity at 70.5 h was -2.99%.

On to `CCS(=O)(=O)N1CCCc2ccc(NC(=O)Cc3ccc(F)cc3)cc21`, for which the cytotoxicity at 70.5 h was 36.7%.

For `Cc1nsc(N2CCN(C(=O)Nc3cccc(F)c3)CC2)n1`, the cytotoxicity at 70.5 h turned out to be 13.5%.

With `NS(=O)(=O)CCNC(=O)C1(c2ccccc2)CC1`, the cytotoxicity at 70.5 h was -1.21%.

As to `Cc1cc(S(C)(=O)=O)c(C)c(S(=O)(=O)NCC2CCC2)c1`, the cytotoxicity at 70.5 h is -9.88%.

Regarding `CC1CCN(C(CNC(=O)Cn2cccn2)c2cccs2)CC1` (stereo not given), the cytotoxicity at 70.5 h was -7.96%.

Turning to `CC(C)OCCS(=O)(=O)c1nccn1-c1cccc(F)c1`, the cytotoxicity at 70.5 h was -9.1%.

For the compound `CCCNC(=O)C(C)Nc1ccc(OCC)cc1` (stereo not given) [PROPETAMIDE], the cytotoxicity at 70.5 h is -8.27%.

Turning to `Cc1ncncc1C(=O)N1CCOC(C(=O)NC2CCCC2)C1` (stereo not given), the cytotoxicity at 70.5 h is -1.76%.

For the compound `Cc1nc(CCNC(=O)NCc2ccc(N(C)C)nc2)cs1`, the cytotoxicity at 70.5 h was -8.72%.

For the compound `CCc1nc(CC(=O)N2CCCC2CN2CCCC2)cs1` (stereo not given), the cytotoxicity at 70.5 h was -1.93%.

Turning to `Cc1ccc(Sc2ccc(N3CCC(C(=O)O)CC3)nn2)cc1`, the cytotoxicity at 70.5 h was 33.4%.

With `CCS(=O)(=O)N1CCCC2(CCCN2C(=O)c2cscn2)C1` (stereo not given), the cytotoxicity at 70.5 h was -0.54%.

Regarding `CC(C)C(=O)N1CCC2(CC1)NC(=O)c1ccccc12`, the cytotoxicity at 70.5 h was -2.39%.

Regarding `COCCN(CCOC)Cc1c(C)nc2ccccc2c1O`, the cytotoxicity at 70.5 h was determined as 5.31%.

Regarding `CC(C)(C)c1nnc(CN(Cc2cccs2)CC2CCCO2)o1` (stereo not given), the cytotoxicity at 70.5 h was -1.38%.

In the case of `Cc1cc2nccc(C3CCCN(C(=O)c4ccccc4F)C3)n2n1` (stereo not given), the cytotoxicity at 70.5 h is -1.93%.

Consider `Cc1cccc2c1cnn2CCCNC(=O)C1CC1`, for which the cytotoxicity at 70.5 h is -4.27%.

With `O=C(CN1CCCC1c1nc(-c2ccccn2)no1)N1CCNCC1` (stereo not given), the cytotoxicity at 70.5 h is -4.93%.

`CN1CCCC(c2nc3c([nH]2)CC(C)(C)CNC3=O)C1` (stereo not given): the cytotoxicity at 70.5 h is 13.5%.

For `COCC1CC2(CCN(Cc3ccc(OC)cc3)CC2)CN1C(C)C` (stereo not given), the cytotoxicity at 70.5 h was -13.7%.

On to `CCc1ccc(C(=O)Nc2ccc3c(c2)N(C)CCN(C)C3)o1`, for which the cytotoxicity at 70.5 h was -8.89%.

`Cc1nccn1-c1ccc(C(C)NCc2ncc[nH]2)cc1` (stereo not given): the cytotoxicity at 70.5 h worked out at 12.6%.

On to `CCc1ncc(C(=O)N2CC[C@@H]3CC[C@H](C2)N3C)cn1`, for which the cytotoxicity at 70.5 h was -14%.

For the compound `CC(C)(C)S(=O)(=O)CCNC(=O)c1ccc2cc[nH]c2c1`, the cytotoxicity at 70.5 h is -0.00861%.

With `O=C(O)CN(Cc1ccsc1)CC1CCCO1` (stereo not given), the cytotoxicity at 70.5 h was -2.27%.

For the compound `OCCCc1nncn1-c1cccc(C(F)(F)F)c1`, the cytotoxicity at 70.5 h was -1.23%.

For the compound `CC(=O)N1CCCC1C(=O)NCCOc1cccc(F)c1` (stereo not given), the cytotoxicity at 70.5 h is -12.8%.

For the compound `COc1cc(CNCC2CNc3ccnn3C2)ccn1` (stereo not given), the cytotoxicity at 70.5 h was -3.41%.

On to `Cn1cc(C(=O)N2CCO[C@@H]3CN(C4CCC4)C[C@@H]3C2)cn1`, for which the cytotoxicity at 70.5 h is -3.32%.

`Cc1ccnc(C2CN(c3ncccn3)C2)n1`: the cytotoxicity at 70.5 h is -12.1%.

In the case of `Cc1nc(CN(C)C(=O)Nc2cccc(C)c2C)no1`, the cytotoxicity at 70.5 h is -9.32%.

In the case of `CC(C)c1nnc2n1CCN(C(=O)c1ccc(CN(C)C)cc1)C2`, the cytotoxicity at 70.5 h came out at 3.04%.

With `Cc1[nH]c(=O)[nH]c(=O)c1CN1CCCC(CCc2ccc(F)c(F)c2)C1` (stereo not given), the cytotoxicity at 70.5 h was -10.6%.

Take `COc1cc(CNc2nc3c(c(=O)[nH]2)CCNC3)cc(OC)c1OC`: the cytotoxicity at 70.5 h is -6.47%.

`CC(C)n1cnnc1CN(C)C(=O)c1ccccc1-n1cncn1`: the cytotoxicity at 70.5 h is 0.803%.

In the case of `O=C(c1ccc2nccnc2c1)N1C[C@@H](CN2CCCC2)[C@@H](CO)C1`, the cytotoxicity at 70.5 h is -5.28%.

As for `Cc1noc(CN(C)c2ccccc2)n1`, the cytotoxicity at 70.5 h was -13.6%.

As for `O=C(NCC1CC1)[C@@H]1CCO[C@@H]2CCN(c3ncccn3)C[C@@H]21`, the cytotoxicity at 70.5 h is -3.18%.

As for `COc1cccc(-c2c[nH]c(C3CCCN3)n2)c1` (stereo not given), the cytotoxicity at 70.5 h is -4.68%.

Turning to `Nc1nccc(-c2cccc3ccnn23)n1`, the cytotoxicity at 70.5 h was -1.89%.

For the compound `O=C(NCCn1cnnc1C1CC1)c1c(O)cc(F)cc1F`, the cytotoxicity at 70.5 h was -11.9%.

On to `CC1=N[C@@]2(CC[C@@H]3CN(Cc4ccc(C)cc4)C[C@@H]32)C(=O)N1CC1CC1`, for which the cytotoxicity at 70.5 h is -12.4%.

On to `Cc1cccc(CN2C[C@@H]3CN(C(=O)NC(C)C)C[C@@H]3C2=O)c1`, for which the cytotoxicity at 70.5 h is -11.4%.

On to `O=C(NC[C@]12COC[C@H]1CN(C1CCOCC1)C2)c1ccco1`, for which the cytotoxicity at 70.5 h is -0.469%.

Regarding `Cc1nc(CCN(C)C(=O)CN2CCCCCC2)no1`, the cytotoxicity at 70.5 h is -9.68%.

With `COCCCC1(CO)CCCN(C(=O)c2cnc3c(c2)CCCC3)C1` (stereo not given), the cytotoxicity at 70.5 h was -6.26%.

`CCOC(=O)N1CCN(c2nc(NCCCO)c3ccccc3n2)CC1`: the cytotoxicity at 70.5 h was -21.9%.

As to `COc1ccccc1CNC(=O)Cn1ncc2c1c(C)nn2C`, the cytotoxicity at 70.5 h was determined as 0.128%.

As to `c1ncn(CC2CN(CC3CCCCC3)CCO2)n1` (stereo not given), the cytotoxicity at 70.5 h was 2.16%.

Consider `CCc1ccc2nc(NCCCN(CCO)CCO)cc(C)c2c1`, for which the cytotoxicity at 70.5 h was -3.69%.

Take `COc1ccccc1NC(=O)CC(C)NCc1scnc1C` (stereo not given): the cytotoxicity at 70.5 h is -4.53%.

For `CCNC(=O)N1C[C@@H]2OCC(=O)N(CC3CCCCC3)[C@@H]2C1`, the cytotoxicity at 70.5 h was -3.95%.

With `COc1ccc(-n2cnc(Cl)c2CO)cc1`, the cytotoxicity at 70.5 h is -2.44%.

`Cc1cc(CC(C)Nc2nc(-c3cccnc3)nc3c2CNC3)[nH]n1` (stereo not given): the cytotoxicity at 70.5 h was -12%.

As to `O=C(NCC1CC1)[C@@H]1CC[C@@H]2[C@@H](CCN2Cc2ccc(F)c(F)c2)O1`, the cytotoxicity at 70.5 h amounted to 2.42%.

With `COc1ccc(C(C)N(C)Cc2c(C(C)(C)C)[nH]c3ncccc23)cc1` (stereo not given), the cytotoxicity at 70.5 h was determined as 12.9%.

As to `Cc1cc(CS(=O)(=O)N(C)C(C)c2ccc(Cl)cc2)on1` (stereo not given), the cytotoxicity at 70.5 h was -11.1%.

As to `CC(CN1CCOCC1)NC1CCN(Cc2cccc(O)c2)CC1` (stereo not given), the cytotoxicity at 70.5 h is -8.8%.

As to `CCC(=O)N1CC[C@H]2[C@H](C[C@@H](Cn3cccn3)N2c2nccs2)C1`, the cytotoxicity at 70.5 h was 8.28%.

On to `CC(=O)NCCNC(=O)C(c1ccccc1C)N(C)C` (stereo not given), for which the cytotoxicity at 70.5 h was 12.4%.

Regarding `N#Cc1ccccc1C(=O)N1C[C@@H](CN2CCOCC2)[C@@H](CO)C1`, the cytotoxicity at 70.5 h was -12%.

As to `CCC(C(=O)NCc1csc(N2CCOCC2)n1)n1cccn1` (stereo not given), the cytotoxicity at 70.5 h is -4.73%.

In the case of `Cc1cccc(Nc2nccnc2C2CCCN(CC(=O)N(C)C)C2)n1` (stereo not given), the cytotoxicity at 70.5 h is -7.55%.

For the compound `COc1cc2nc(C)n(CC(=O)NCCO)c(=O)c2cc1OC`, the cytotoxicity at 70.5 h is -8.13%.

In the case of `CSC(C)(C)CNC(=O)NCCC1CCN(C)CC1`, the cytotoxicity at 70.5 h is -3.38%.

In the case of `O=C(Nc1cccc(OCC(F)F)n1)c1ccncc1`, the cytotoxicity at 70.5 h was -8.53%.

As for `c1cnc(N2CCCC3(CCN(Cc4ccsc4)C3)C2)nc1` (stereo not given), the cytotoxicity at 70.5 h is 11.1%.

`OCCOc1cc(F)ccc1NCc1ccc(F)c(F)c1`: the cytotoxicity at 70.5 h was -2.79%.

For the compound `CCC[C@@H]1CN(S(=O)(=O)c2ccc3[nH]c(=O)[nH]c3c2)C[C@H]1NC(C)=O`, the cytotoxicity at 70.5 h is -1.53%.

For `CC(=O)N1CCC(c2cncc(N3CCOCC3)n2)CC1`, the cytotoxicity at 70.5 h is -8.68%.

As for `Nc1nc2c(c3c1C(=O)NC3=O)CCC2`, the cytotoxicity at 70.5 h was -14.7%.

For the compound `O=C(Nc1cccc(F)c1)NC1CCN(Cc2ccncc2)CC1`, the cytotoxicity at 70.5 h is -15.3%.

`CC(C)c1cc(N2CCC(NS(C)(=O)=O)CC2)n2nccc2n1`: the cytotoxicity at 70.5 h was -2.38%.

On to `CN(CCO)Cc1nnc(C2CCN(C(=O)c3cccn3C)CC2)n1C`, for which the cytotoxicity at 70.5 h was -5.93%.

`O=C(NCc1cc[nH]n1)N1CCCC(N2CCCC2)C1` (stereo not given): the cytotoxicity at 70.5 h is -4.82%.
